One series deals with T1, human mGluR2 (Homo sapiens, UniProt Q14416).
T1 construct: expressed in transfected cells; host or cells: CHO cells (membranes)
As to the kind of experiment: [35S]GTPγS binding assay (PAM assay). The class given is biochemical. The source says: The compounds provided in the present invention are positive allosteric modulators of mGluR2. These compounds appear to potentiate glutamate responses by binding to an allosteric site other than the glutamate binding site. The response of mGluR2 to a concentration of glutamate is increased when compounds of formula (I) are present. Compounds of formula (I) are expected to have their effect substantially at mGluR2 by virtue of their ability to enhance the function of the receptor. The behaviour of positive allosteric modulators tested at mGluR2 using the [^35S]GTPγS binding assay method described below and which is suitable for the identification of such compounds, and more particularly the compounds according to formula (I), are shown in Table 3.
The [^35S]GTPγS binding assay is a functional membrane-based assay used to study G-protein coupled receptor (GPCR) function whereby incorporation of a non-hydrolysable form of GTP, [^35S]GTPγS (guanosine 5′-triphosphate, labelled with […] ^35S), is measured. The G-protein […] catalyzes the exchange of guanosine 5′-diphosphate (GDP) by guanosine triphosphate (GTP) and on activation of the GPCR by an agonist, [^35S]GTPγS, becomes incorporated and cannot be cleaved to continue the exchange cycle (Harper (1998) Current Protocols in Pharmacology 2.6.1-10, John Wiley & Sons, Inc.). […] Here we describe the use of the [^35S]GTPγS binding assay using membranes from cells transfected with the human mGluR2 receptor and adapted from Schaffhauser et al ((2003) Molecular Pharmacology 4:798-810) for the detection of the positive allosteric modulation (PAM) properties of the compounds of this invention.
CHO-cells were cultured to pre-confluence and stimulated with 5 mM butyrate for 24 hours, prior to washing in PBS, and then collection by scraping in homogenisation buffer (50 mM Tris-HCl buffer, pH 7.4, 4° C.). Cell lysates were homogenized briefly (15s) using an ultra-turrax homogenizer. The homogenate was centrifuged at 23 500×g for 10 minutes and the supernatant discarded. The pellet was resuspended in 5 mM Tris-HCl, pH 7.4 and centrifuged again (30 000×g, 20 min, 4° C.). The final pellet was resuspended in 50 mM HEPES, pH 7.4 and stored at −80° C. in appropriate aliquots before use. Protein concentration was determined by the Bradford method (Bio-Rad, USA) with bovine serum albumin as standard.
Measurement of mGluR2 positive allosteric modulatory activity of test compounds in membranes containing human mGluR2 was performed using frozen membranes that were thawed and briefly homogenised prior to pre-incubation in 96-well microplates (15 μg/assay well, 30 minutes, 30° C.) in assay buffer (50 mM HEPES pH 7.4, 100 mM NaCl, 3 mM MgCl2, 50 μM GDP, 10 μg/ml saponin,) with increasing concentrations of positive allosteric modulator (from 0.3 nM to 50 μM) and either a minimal pre-determined concentration of glutamate (PAM assay), or no added glutamate. For the PAM assay, membranes were pre-incubated with glutamate at EC25 concentration, i.e. a concentration that gives 25% of the maximal response glutamate, and is in accordance to published data (Pin et al. (1999) Eur. J. Pharmacol. 375:277-294). After addition of [^35S]GTPγS (0.1 nM, f.c.) to achieve a total reaction volume of 200 μl, microplates were shaken briefly and further incubated to allow [^35S]GTPγS incorporation on activation (30 minutes, 30° C.). The reaction was stopped by rapid vacuum filtration over glass-fibre filter plates (Unifilter 96-well GF/B filter plates, Perkin-Elmer, Downers Grove, USA) microplate using a 96-well plate cell harvester (Filtermate, Perkin-Elmer, USA), and then by washing three times with 300 μl of ice-cold wash buffer (Na2PO4.2H20 10 mM, NaH2PO4.H20 10 mM, pH=7.4). Filters were then air-dried, and 40 μl of liquid scintillation cocktail (Microscint-O) was added to each well, and membrane-bound [^35S]GTPγS was measured in a 96-well scintillation plate reader (Top-Count, Perkin-Elmer, USA). […]
Background: GTPγS resists hydrolysis and so accumulates on activated G proteins.

[1] abbreviates: membranes from CHO cells transfected with human mGluR2, in presence of glutamate at predetermined EC25 concentration, averages of duplicate values of 11-concentration response curves, read-out: GTPgS - hR2 PAM pEC50 (converted).
The mark [2] stands for this setting: compounds of formula (I'), protocol of section D ([35S]GTPγS, human mGluR2, glutamate EC25), read-out: pEC50 (see section D for protocol) (converted).

Read-outs that look alike come from different tables or passages of the source.

T1 sequence (Q14416 19-872): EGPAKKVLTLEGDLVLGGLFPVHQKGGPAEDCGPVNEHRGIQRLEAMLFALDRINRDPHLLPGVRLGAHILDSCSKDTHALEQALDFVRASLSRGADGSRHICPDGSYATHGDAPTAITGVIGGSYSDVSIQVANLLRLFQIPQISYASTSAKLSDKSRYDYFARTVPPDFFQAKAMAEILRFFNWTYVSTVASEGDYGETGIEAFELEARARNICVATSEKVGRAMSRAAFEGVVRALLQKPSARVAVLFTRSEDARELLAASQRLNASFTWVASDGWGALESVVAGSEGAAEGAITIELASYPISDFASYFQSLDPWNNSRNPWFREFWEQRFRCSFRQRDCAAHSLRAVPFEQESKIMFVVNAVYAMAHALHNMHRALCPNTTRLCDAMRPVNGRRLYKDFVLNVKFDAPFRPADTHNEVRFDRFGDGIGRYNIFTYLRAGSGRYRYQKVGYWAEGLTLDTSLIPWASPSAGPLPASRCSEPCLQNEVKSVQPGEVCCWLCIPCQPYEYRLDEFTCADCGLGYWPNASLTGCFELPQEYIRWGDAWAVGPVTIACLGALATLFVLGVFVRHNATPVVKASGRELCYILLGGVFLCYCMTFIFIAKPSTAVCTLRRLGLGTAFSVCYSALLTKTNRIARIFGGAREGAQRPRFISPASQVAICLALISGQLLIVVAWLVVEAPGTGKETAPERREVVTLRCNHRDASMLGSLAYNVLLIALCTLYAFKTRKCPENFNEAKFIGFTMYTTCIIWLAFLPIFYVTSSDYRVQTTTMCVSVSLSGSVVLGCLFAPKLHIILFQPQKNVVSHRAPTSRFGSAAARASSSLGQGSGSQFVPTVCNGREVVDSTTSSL

The term melting point denotes the temperature, or range, at which the solid turns liquid. With `CCCCn1ccc(N2CCC(CO)(c3ccccc3)CC2)c(C#N)c1=O` [Compound 4, 1′-Butyl-4-hydroxymethyl-2′-oxo-4-phenyl-3,4,5,6,1′,2′-hexahydro-2H-[1,4′]bipyridinyl-3′-carbonitrile], the melting point turned out to be 103.2 °C. Besides, on human mGluR2 (setting [1]), the EC50 is 2040 nM. Turning to `N#Cc1c(N2CCC(O)(c3ccccc3)CC2)ccn(CC2CC2)c1=O`, on human mGluR2 (setting [2]), the EC50 is 1000 nM. With `N#Cc1c(N2CCC(F)(c3ccccc3)CC2)ccn(CC2CC2)c1=O` [Compound 1, 1′-Cyclopropylmethyl-4-fluoro-2′-oxo-4-phenyl-3,4,5,6,1′,2′-hexahydro-2H-[1,4′]bipyridinyl-3′-carbonitrile], the melting point stood at 189.2 °C. Besides, the EC50 on human mGluR2 (setting [1]) is 263 nM. Take `CCCCn1ccc(N2CCC(O)(c3cccc(Cl)c3)CC2)c(C#N)c1=O`: on human mGluR2 (setting [2]), the EC50 was 200 nM. `N#Cc1c(N2CCC(O)(c3ccc(F)cc3)CC2)ccn(CC2CC2)c1=O`: the EC50 at human mGluR2 (setting [2]) is 501 nM. Still for that read-out and setting: the result for `CCCCn1ccc(N2CCC(O)(c3ccc(Cl)cc3)CC2)c(C#N)c1=O` reads 100 nM.

Consider `N#Cc1c(N2CCC(CF)(c3ccccc3)CC2)ccn(CC2CC2)c1=O` [Compound 5, 1′-Cyclopropylmethyl-4-fluoromethyl-2′-oxo-4-phenyl-3,4,5,6,1′,2′-hexahydro-2H-[1,4′]bipyridinyl-3′-carbonitrile], for which, at human mGluR2 (setting [1]), the EC50 is 1200 nM. On to `N#Cc1c(N2CCC(c3ccccc3)CC2)ccn(CC2CC2)c1=O` [Compound 8, 3-cyano-1-cyclopropylmethyl-4-(4-phenyl-piperidin-1-yl)-pyridine-2(1H)-one], for which the melting point amounted to 128 °C. On human mGluR2 (setting [1]), the EC50 was 316 nM. For the compound `CCCCn1ccc(N2CCC(O)(c3ccc(F)cc3)CC2)c(C#N)c1=O`, the EC50 at human mGluR2 (setting [2]) was 398 nM. `CCCCn1ccc(N2CCC(OCCF)(c3ccccc3)CC2)c(C#N)c1=O` [Compound 7, 1′-Butyl-4-fluoroethyloxy-2′-oxo-4-phenyl-3,4,5,6,1′,2′-hexahydro-2H-[1,4′]bipyridinyl-3′-carbonitrile]: at human mGluR2 (setting [1]), the EC50 was 186 nM. Same read-out and setting: as for `CCCCn1ccc(N2CCC(CF)(c3ccccc3)CC2)c(C#N)c1=O` [Compound 6, 1′-Butyl-4-fluoromethyl-2′-oxo-4-phenyl-3,4,5,6,1′,2′-hexahydro-2H-[1,4′]bipyridinyl-3′-carbonitrile], the figure is 447 nM; as for `CCCCn1ccc(N2CCC(F)(c3ccccc3)CC2)c(C#N)c1=O` [Compound 2, 1′-Butyl-4-fluoro-2′-oxo-4-phenyl-3,4,5,6,1′,2′-hexahydro-2H-[1,4′]bipyridinyl-3′-carbonitrile], 174 nM.

Source of the values: US20100063092A1, “3-CYANO-4-(4-PHENYL-PIPERIDIN-1-YL)-PYRIDIN-2-ONE DERIVATIVES” (Ortho-Mcneil-Janssen Pharmaceuticals, Inc., priority 2007, published 2010).
